Test results published in US8153103B2, “Conjugates of photo-activatable dyes” (Board of Regents, The University of Texas System, priority 2008, dated 2012).

System: gap junction channels
Test: Cell-cell dye transfer after local uncaging in C. elegans embryos (control experiments)
Format: in vivo
Settings: α-GA 25 μM, 4-cell embryo, eggshell thinned with bleach and chitinase, ABp uncaged
From the text: To study the pattern of cell-cell coupling during early development, embryos were collected from injected worms and subjected to differential interference contrast (“DIC”) imaging. Three to four hours after injection, early embryos were collected from injected worms by cutting the worms near the uterus. Labeled embryos were transferred onto a 2% agar pad, covered with a coverslip, and mounted on an inverted fluorescence microscope (Axiovert 200M, Carl Zeiss, Peabody, Mass.). During uncaging and imaging, motorized filter wheels (Ludl Electronics Products, Hawthorne, N.Y.) were employed to select excitation and emission wavelengths by passing light from a Xeon lamp (75 W) through bandpass filters (Chroma Technology, Rockingham, Vt.). A neutral density filter was also added to the light path to reduce the excitation light intensity by about 70%. The typical UV uncaging duration is about 2 seconds. Bandpass filters were chosen for UV uncaging (360±20 nm), coumarin imaging (excitation 425±5 nm, emission 460±15 nm), GFP imaging (excitation 488±7.5 nm, emission 530±20 nm), and rhodamine imaging (excitation 560±20 nm, emission 615±30 nm). A customized multiple path dichroic mirror was used for the UV uncaging and 3-color imaging. Epifluorescence was collected with a cooled CCD camera (ORCA-ER, Hamamatsu, Bridgewater, N.J.) under the control of OpenLab software (Improvision, Waltham, Mass.). […]

`CC1(C)[C@@H](O)CC[C@]2(C)[C@H]3C(=O)C=C4[C@H]5C[C@@](C)(C(=O)O)CC[C@]5(C)CC[C@@]4(C)[C@]3(C)CC[C@@H]12` [α-GA, 18α-glycyrrhetinic acid] was tested, and the “cell-cell dye transfer after uncaging dextran-CANPE-HCC in presence of blocker” value was “dye transfer was not observed”.
